Assay results taken from PubChem BioAssay AID248 (DTP/NCI, 2004).
Where “and” joins values, the source holds several entries; their conditions need not be identical. Identical values can stand only once. Toxic doses and inconclusive results are not listed.

Tested on: L1210 leukemia ip in BDF1 mice, survival T/C
Assay: NCI In Vivo Anticancer Drug Screen. Data for tumor model L1210 Leukemia (intraperitoneal) in B6D2F1 (BDF1) mice
Conditions: higher = longer survival
How it was run: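 Each compound was tested against a transplantable tumor grown in mice. The endpoint was survival, with treated animals benchmarked against vehicle controls as a simple ratio.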

[1] = endpoint: mean survival time, dose: 100.0 mg/kg/injection, schedule: Q01DX009 (ip), vehicle: Klucel (hydroxypropylcellulose) (HPC)
[2] = endpoint: mean survival time, dose: 100.0 mg/kg/injection, schedule: Q04DX003 (ip), vehicle: Klucel (hydroxypropylcellulose) (HPC)
[3] = endpoint: mean survival time, dose: 200.0 mg/kg/injection, schedule: Q01DX009 (ip), vehicle: Klucel (hydroxypropylcellulose) (HPC)
[4] = endpoint: mean survival time, dose: 200.0 mg/kg/injection, schedule: Q04DX003 (ip), vehicle: Klucel (hydroxypropylcellulose) (HPC)
[5] = endpoint: mean survival time, dose: 400.0 mg/kg/injection, schedule: Q04DX003 (ip), vehicle: Klucel (hydroxypropylcellulose) (HPC)
[6] = endpoint: mean survival time, dose: 100.0 mg/kg/injection, schedule: Q04DX003 (ip), vehicle: saline
[7] = endpoint: mean survival time, dose: 200.0 mg/kg/injection, schedule: Q04DX003 (ip), vehicle: saline
[8] = endpoint: mean survival time, dose: 100.0 mg/kg/injection, schedule: Q01DX001 (ip), vehicle: saline
[9] = endpoint: mean survival time, dose: 200.0 mg/kg/injection, schedule: Q01DX001 (ip), vehicle: saline
[10] = endpoint: mean survival time, dose: 400.0 mg/kg/injection, schedule: Q01DX001 (ip), vehicle: saline
[11] = endpoint: mean survival time, dose: 200.0 mg/kg/injection, schedule: Q01DX001 (ip), vehicle: carboxymethylcellulose (CMC)
[12] = endpoint: mean survival time, dose: 400.0 mg/kg/injection, schedule: Q01DX009 (ip), vehicle: Klucel (hydroxypropylcellulose) (HPC)

With CN(Cc1ccccc1)C(=O)/C=C/c1ccccc1 the T/C [1] was 93 % of control, the T/C [2] was 94 % of control and the T/C [3] was 96 % of control. For the same compound, the T/C [4] was 96 % of control and the T/C [5] was 89 % of control.

O=C(N1CCOCC1)C1(c2ccccc2)CCNCC1 was tested, and the T/C [6] was 98 % of control and the T/C [7] was 93 % of control.

In the case of CCOC(=O)c1ccc(N=NN(C)C2CCCCC2)cc1, the T/C (endpoint: mean survival time, dose: 100.0 mg/kg/injection, schedule: Q01DX001 (sc), vehicle: olive oil, sesame oil, peanut oil) is reported as 102 % of control, the T/C (endpoint: mean survival time, dose: 100.0 mg/kg/injection, schedule: Q01DX009 (sc), vehicle: olive oil, sesame oil, peanut oil) is reported as 104 % of control and the T/C (endpoint: mean survival time, dose: 100.0 mg/kg/injection, schedule: Q04DX003 (sc), vehicle: olive oil, sesame oil, peanut oil) is reported as 102 % of control. For the same compound, the T/C (endpoint: mean survival time, dose: 200.0 mg/kg/injection, schedule: Q01DX001 (sc), vehicle: olive oil, sesame oil, peanut oil) was 102 % of control, the T/C (endpoint: mean survival time, dose: 200.0 mg/kg/injection, schedule: Q01DX009 (sc), vehicle: olive oil, sesame oil, peanut oil) was 116 % of control and the T/C (endpoint: mean survival time, dose: 200.0 mg/kg/injection, schedule: Q04DX003 (sc), vehicle: olive oil, sesame oil, peanut oil) was 103 % of control. For the same compound, the T/C (endpoint: mean survival time, dose: 400.0 mg/kg/injection, schedule: Q01DX001 (sc), vehicle: olive oil, sesame oil, peanut oil) was 98 % of control, the T/C (endpoint: mean survival time, dose: 400.0 mg/kg/injection, schedule: Q01DX009 (sc), vehicle: olive oil, sesame oil, peanut oil) was 104 % of control and the T/C (endpoint: mean survival time, dose: 400.0 mg/kg/injection, schedule: Q04DX003 (sc), vehicle: olive oil, sesame oil, peanut oil) was 100 % of control.

With CC1Oc2ccccc2OC1C(=O)NN (configuration not stated) the T/C (endpoint: mean survival time, dose: 100.0 mg/kg/injection, schedule: Q04DX003 (ip), vehicle: saline with Tween-80) was 95 % of control, the T/C (endpoint: mean survival time, dose: 200.0 mg/kg/injection, schedule: Q04DX003 (ip), vehicle: saline with Tween-80) was 97 % of control and the T/C (endpoint: mean survival time, dose: 400.0 mg/kg/injection, schedule: Q04DX003 (ip), vehicle: saline with Tween-80) was 106 % of control.

COC(=O)c1ccc(SCCCN2CCOCC2)cc1 was tested, and the T/C (endpoint: mean survival time, dose: 100.0 mg/kg/injection, schedule: Q01DX009 (ip), vehicle: saline) was 97 % of control, the T/C [6] was 109 % of control and the T/C (endpoint: mean survival time, dose: 200.0 mg/kg/injection, schedule: Q01DX009 (ip), vehicle: saline) was 96 % of control. The T/C [7] was 96 % of control, the T/C (endpoint: mean survival time, dose: 400.0 mg/kg/injection, schedule: Q01DX009 (ip), vehicle: saline) was 102 % of control and the T/C (endpoint: mean survival time, dose: 400.0 mg/kg/injection, schedule: Q04DX003 (ip), vehicle: saline) was 100 % of control.

COC(=O)C(=O)c1c(O)n(-c2ccccc2)c2ccccc12 was tested, and the T/C (endpoint: mean survival time, dose: 25.0 mg/kg/injection, schedule: Q04DX003 (ip), vehicle: Klucel (hydroxypropylcellulose) (HPC)) was 101 % of control, the T/C (endpoint: mean survival time, dose: 50.0 mg/kg/injection, schedule: Q04DX003 (ip), vehicle: Klucel (hydroxypropylcellulose) (HPC)) was 101 % of control and the T/C [2] was 98 % of control.

With O=C1C=C(c2ccccc2)S(=O)(=O)C(c2ccccc2)=C1 the T/C (endpoint: mean survival time, dose: 37.5 mg/kg/injection, schedule: Q04DX002 (ip), vehicle: Klucel (hydroxypropylcellulose) (HPC)) was 97 % of control, the T/C (endpoint: mean survival time, dose: 75.0 mg/kg/injection, schedule: Q01DX001 (ip), vehicle: carboxymethylcellulose (CMC)) was 124 % of control and the T/C (endpoint: mean survival time, dose: 75.0 mg/kg/injection, schedule: Q04DX002 (ip), vehicle: Klucel (hydroxypropylcellulose) (HPC)) was 108 % of control. For the same compound, the T/C (endpoint: mean survival time, dose: 150.0 mg/kg/injection, schedule: Q04DX002 (ip), vehicle: Klucel (hydroxypropylcellulose) (HPC)) was 101 % of control.

With CCN(Cc1ccccc1)c1nn[nH]n1 the T/C [8] was 98 % of control, the T/C [9] was 102 % of control and the T/C [10] was 102 % of control.

With CCCN(C)/N=N/c1nc[nH]c1C(N)=O the T/C (endpoint: mean survival time, dose: 22.0 mg/kg/injection, schedule: Q01DX009 (ip), vehicle: carboxymethylcellulose (CMC)) was 120 % of control, the T/C (endpoint: mean survival time, dose: 37.5 mg/kg/injection, schedule: Q01DX Z (ip), vehicle: carboxymethylcellulose (CMC)) was 151 % of control and the T/C (endpoint: mean survival time, dose: 50.0 mg/kg/injection, schedule: Q01DX009 (ip), vehicle: carboxymethylcellulose (CMC)) was 151 % of control. The T/C (endpoint: mean survival time, dose: 50.0 mg/kg/injection, schedule: Q01DX Z (ip), vehicle: carboxymethylcellulose (CMC)) was 158 % of control, the T/C (endpoint: mean survival time, dose: 75.0 mg/kg/injection, schedule: Q01DX009 (ip), vehicle: carboxymethylcellulose (CMC)) was 157 % of control and the T/C (endpoint: mean survival time, dose: 88.0 mg/kg/injection, schedule: Q01DX001 (ip), vehicle: carboxymethylcellulose (CMC)) was 106 % of control. The T/C (endpoint: mean survival time, dose: 89.0 mg/kg/injection, schedule: Q01DX001 (ip), vehicle: carboxymethylcellulose (CMC)) was 117 % of control, the T/C (endpoint: mean survival time, dose: 100.0 mg/kg/injection, schedule: Q01DX009 (ip), vehicle: carboxymethylcellulose (CMC)) was 152 % of control and the T/C (endpoint: mean survival time, dose: 133.0 mg/kg/injection, schedule: Q01DX001 (ip), vehicle: carboxymethylcellulose (CMC)) was 101 % of control and 124 % of control. The T/C [11] was 103 % of control, the T/C (endpoint: mean survival time, dose: 300.0 mg/kg/injection, schedule: Q01DX001 (ip), vehicle: carboxymethylcellulose (CMC)) was 104 % of control and 117 % of control and the T/C (endpoint: median survival time, dose: 12.5 mg/kg/injection, schedule: Q01DX009 (ip), vehicle: steriod suspending solution) was 116 % of control and 122 % of control. The T/C (endpoint: median survival time, dose: 50.0 mg/kg/injection, schedule: Q01DX009 (ip), vehicle: steriod suspending solution) was 166 % of control and the T/C (endpoint: median survival time, dose: 100.0 mg/kg/injection, schedule: Q01DX009 (ip), vehicle: steriod suspending solution) was 122 % of control.

For CCCCCCCCCCCCOc1ccccc1C(=O)O, the T/C (endpoint: mean survival time, dose: 100.0 mg/kg/injection, schedule: Q01DX009 (ip), vehicle: saline sonified) was 98 % of control, the T/C [2] was 97 % of control and the T/C (endpoint: mean survival time, dose: 200.0 mg/kg/injection, schedule: Q01DX009 (ip), vehicle: saline sonified) was 116 % of control. The T/C [4] was 89 % of control, the T/C (endpoint: mean survival time, dose: 400.0 mg/kg/injection, schedule: Q01DX009 (ip), vehicle: saline sonified) was 108 % of control and the T/C [5] was 99 % of control.

Cn1ncc(C(=O)O)c1NN=O was tested, and the T/C (endpoint: mean survival time, dose: 50.0 mg/kg/injection, schedule: Q04DX003 (ip), vehicle: saline) was 104 % of control, the T/C (endpoint: mean survival time, dose: 100.0 mg/kg/injection, schedule: Q01DX001 (ip), vehicle: carboxymethylcellulose (CMC)) was 106 % of control and the T/C [6] was 105 % of control. For the same compound, the T/C [11] was 108 % of control, the T/C [7] was 96 % of control and the T/C (endpoint: mean survival time, dose: 400.0 mg/kg/injection, schedule: Q01DX001 (ip), vehicle: carboxymethylcellulose (CMC)) was 102 % of control.

With Nc1nc2ncc(CNc3ccc(CC(=O)NC(CCC(=O)O)C(=O)O)cc3)nc2c(=O)[nH]1 (configuration not stated) the T/C (endpoint: mean survival time, dose: 75.0 mg/kg/injection, schedule: Q01DX001 (ip), vehicle: saline) was 103 % of control and the T/C (endpoint: mean survival time, dose: 150.0 mg/kg/injection, schedule: Q01DX001 (ip), vehicle: saline) was 103 % of control.

For CNS(=O)(=O)c1ccccc1C(O)(c1ccccc1)c1ccccc1, the T/C [8] was 94 % of control, the T/C [9] was 100 % of control and the T/C [10] was 111 % of control.

In the case of O=C1NC(c2ccc(F)cc2)OC1C(=O)c1ccccc1 (configuration not stated), the T/C [8] is reported as 104 % of control, the T/C [9] is reported as 110 % of control and the T/C [10] is reported as 104 % of control.

O=C(Nc1ccc(Cl)c([N+](=O)[O-])c1)Nc1nc(C(F)(F)F)cc(=O)[nH]1 was tested, and the T/C [1] was 98 % of control, the T/C [3] was 95 % of control and the T/C [12] was 93 % of control.

In the case of Cc1[nH]c2ccccc2c1C(=O)Cc1ccc(Cl)c(Cl)c1, the T/C (endpoint: mean survival time, dose: 50.0 mg/kg/injection, schedule: Q01DX001 (ip), vehicle: saline) is reported as 101 % of control, the T/C [8] is reported as 98 % of control and the T/C [9] is reported as 98 % of control. For the same compound, the T/C [10] was 101 % of control.

With Cc1ccc(S(=O)(=O)Nc2ccc([N+](=O)[O-])cc2O)cc1 the T/C [1] was 97 % of control, the T/C [3] was 101 % of control and the T/C [12] was 94 % of control.

With Cc1cc(S(=O)(=O)F)ccc1NC(=O)Oc1ccccc1 the T/C (endpoint: mean survival time, dose: 100.0 mg/kg/injection, schedule: Q04DX003 (ip), vehicle: gum acacia) was 95 % of control, the T/C (endpoint: mean survival time, dose: 200.0 mg/kg/injection, schedule: Q04DX003 (ip), vehicle: gum acacia) was 104 % of control and the T/C (endpoint: mean survival time, dose: 400.0 mg/kg/injection, schedule: Q04DX003 (ip), vehicle: gum acacia) was 87 % of control.
